Activity calls are given as the source filed them.
Key:
[1] = insulin promoter down-regulators in MIN6 cells, imaging, high-content screening, mouse beta cells (AID 1628); format: functional
[2] = cytotoxicity in MIN6 insulinoma cells, dose response, cytotoxicity control, cell-based, mouse insulinoma (AID 2122); format: functional;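 note: confirmatory high-throughput counterscreen run to flag cytotoxic compounds; mouse MIN-6 beta cells carrying an insulin promoter eGFP reporter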
cells [3] = format: functional, cell-based
cells [4] = format: functional, cell-based; remark: listed apart in the source
INS1 = assay: beta cell apoptosis inhibitors, cytokine rescue, dose response, luminescence, retest (AID 449756); format: functional, cell-based; conditions: Rattus norvegicus;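 note: cell death triggered by IL-1 beta plus TNF-alpha plus IFN-gamma mixture; protective hits raise ATP signal compared with cytokine alone wells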
P388/ADR = assay: cells; format: functional; conditions: Mus musculus
SN12K1 = assay: cells; format: functional; conditions: Homo sapiens
P388 = assay: cells; format: functional; conditions: Mus musculus
[5] = target: T1, Adenosylmethionine-8-amino-7-oxononanoate aminotransferase (Mycobacterium tuberculosis, UniProt P9WQ81); assay: Mycobacterium tuberculosis BioA enzyme inhibitor Measured in Biochemical System Using Plate Reader - 2163-02_Inhibitor_Dose_CherryPick_Activity.; format: functional, Mycobacterium tuberculosis UT205
T1 sequence (P9WQ81 whole entry): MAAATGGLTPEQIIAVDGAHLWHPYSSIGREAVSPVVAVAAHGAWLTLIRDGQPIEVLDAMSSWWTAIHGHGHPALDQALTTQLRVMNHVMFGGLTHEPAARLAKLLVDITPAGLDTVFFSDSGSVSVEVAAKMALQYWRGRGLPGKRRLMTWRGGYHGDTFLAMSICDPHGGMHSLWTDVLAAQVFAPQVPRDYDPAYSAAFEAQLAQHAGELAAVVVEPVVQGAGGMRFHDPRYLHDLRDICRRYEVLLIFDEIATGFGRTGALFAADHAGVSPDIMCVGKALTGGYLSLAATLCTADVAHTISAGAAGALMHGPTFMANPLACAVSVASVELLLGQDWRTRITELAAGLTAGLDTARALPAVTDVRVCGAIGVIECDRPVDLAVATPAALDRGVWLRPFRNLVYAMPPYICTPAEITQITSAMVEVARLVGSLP

Genome polyprotein = Genome polyprotein (dengue virus type 2, UniProt P29990); assay: Dengue-2 NS5 methyltransferase inhibitors, primary screen, biochemical, confirmation dose response (AID 588689); format: functional
Chain of Genome polyprotein (P29990 2492-3391 limits assumed): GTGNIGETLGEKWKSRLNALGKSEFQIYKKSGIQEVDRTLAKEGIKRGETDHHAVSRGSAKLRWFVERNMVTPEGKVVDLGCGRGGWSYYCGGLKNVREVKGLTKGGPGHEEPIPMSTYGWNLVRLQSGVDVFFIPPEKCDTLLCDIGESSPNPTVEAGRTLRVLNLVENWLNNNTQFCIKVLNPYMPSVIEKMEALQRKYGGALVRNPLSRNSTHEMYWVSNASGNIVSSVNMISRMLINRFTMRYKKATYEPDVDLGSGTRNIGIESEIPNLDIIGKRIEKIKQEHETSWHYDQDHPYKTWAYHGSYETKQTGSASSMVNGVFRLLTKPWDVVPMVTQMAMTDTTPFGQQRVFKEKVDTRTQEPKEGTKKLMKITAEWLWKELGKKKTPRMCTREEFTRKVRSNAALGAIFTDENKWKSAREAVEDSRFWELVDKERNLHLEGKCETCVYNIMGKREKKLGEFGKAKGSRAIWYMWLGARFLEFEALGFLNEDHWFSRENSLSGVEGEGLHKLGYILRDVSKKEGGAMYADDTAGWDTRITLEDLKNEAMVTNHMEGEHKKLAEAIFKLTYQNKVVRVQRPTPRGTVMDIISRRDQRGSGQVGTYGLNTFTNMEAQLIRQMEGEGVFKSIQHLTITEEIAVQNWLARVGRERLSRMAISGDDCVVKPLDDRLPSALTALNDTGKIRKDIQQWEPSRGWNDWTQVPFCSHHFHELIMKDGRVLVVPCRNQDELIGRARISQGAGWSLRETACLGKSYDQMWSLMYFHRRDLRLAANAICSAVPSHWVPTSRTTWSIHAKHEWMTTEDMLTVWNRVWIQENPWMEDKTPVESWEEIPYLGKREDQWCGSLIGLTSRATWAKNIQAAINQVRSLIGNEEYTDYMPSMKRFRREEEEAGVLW

[6] = LGR2 antagonists, dose response, cell-based, HEK293, CRE-luciferase reporter, cherry pick, set 2 (AID 743343); format: functional;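 note: transfected cells were stimulated with diluted bursicon conditioned medium after compound addition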
[7] = MC4R antagonists, dose response, counter-screen for LGR2 antagonist project, cell-based, plate reader, cherry pick (AID 743444); format: functional;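 note: transfected HEK 293 cells stimulated with alpha-MSH peptide; potency of inhibitors of the alpha-MSH evoked signal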
[8] = NIH-3T3 fibroblast cytotoxicity, dose response, cytotoxicity control, cell-based, fluorescence, Alamar Blue, secondary assay (AID 2327); format: functional;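 note: NIH-3T3 mouse fibroblasts cultured with fluconazole at 8 µg/mL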
[9] = C. albicans growth with fluconazole, confirmation, fluorescence, retest (AID 2467); format: functional, cell-based
Nonstructural protein 1 = Nonstructural protein 1 (Influenza A virus, UniProt Q194T2); format: functional, Influenza A virus (A/California/07/2009(H1N1))
Chain of Nonstructural protein 1 (Q194T2 whole entry): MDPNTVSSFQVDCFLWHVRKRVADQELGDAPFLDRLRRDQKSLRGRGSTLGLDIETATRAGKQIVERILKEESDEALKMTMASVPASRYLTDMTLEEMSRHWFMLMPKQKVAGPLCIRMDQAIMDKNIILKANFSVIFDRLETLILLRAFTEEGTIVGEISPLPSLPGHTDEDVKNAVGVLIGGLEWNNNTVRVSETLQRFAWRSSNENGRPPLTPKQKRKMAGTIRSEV

H9c2 = assay: cells; format: functional, cell-based; conditions: Rattus norvegicus, H9c2, Myocardium;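 note: confirmatory concentration-response retest of ultra-high-throughput screening hits for modulation of myocardial damage; cell death induced by hydrogen peroxide oxidative stress; compound pretreatment for 60 min then peroxide exposure for 2 h; potency is for protecting the cells against peroxide damage rather than for killing them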
[10] = THP-1 cell cytotoxicity, dose response, cytotoxicity control for non-replicating M. tuberculosis project (AID 489025); format: functional
[11] = Vero E6 cell cytotoxicity, dose response, cytotoxicity control for non-replicating M. tuberculosis project, secondary assay (AID 492998); format: functional, VeroE6; conditions: Vero C1008
cells [12] = format: functional
Streptokinase A = target: T2, Streptokinase A (Streptococcus pyogenes serotype M1, UniProt P10520); assay: S. pyogenes streptokinase expression inhibitors, potency, dose response, plasminogen activation absorbance, OD405 (AID 1914); format: functional, Streptococcus pyogenes M1 GAS;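 note: secreted streptokinase activity via plasminogen activation per viability signal from cell pellet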
T2 sequence (P10520 whole entry): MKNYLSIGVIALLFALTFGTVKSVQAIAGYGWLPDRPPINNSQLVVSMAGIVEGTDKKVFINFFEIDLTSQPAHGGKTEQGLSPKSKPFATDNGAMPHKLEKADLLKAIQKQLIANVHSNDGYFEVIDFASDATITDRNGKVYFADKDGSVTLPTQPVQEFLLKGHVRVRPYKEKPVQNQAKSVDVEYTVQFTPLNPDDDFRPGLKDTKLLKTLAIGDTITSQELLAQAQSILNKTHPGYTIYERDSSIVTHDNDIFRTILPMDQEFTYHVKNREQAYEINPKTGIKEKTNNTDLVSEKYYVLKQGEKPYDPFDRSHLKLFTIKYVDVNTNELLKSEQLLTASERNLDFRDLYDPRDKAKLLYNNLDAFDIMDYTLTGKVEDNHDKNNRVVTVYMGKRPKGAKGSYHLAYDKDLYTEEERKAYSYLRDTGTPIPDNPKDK

[13] = target: DNA dC->dU-editing enzyme APOBEC-3G (Homo sapiens, UniProt Q9HC16); assay: Dose Response confirmation of small molecule APOBEC3G DNA Deaminase Inhibitors via a fluorescence-based single-stranded DNA deaminase assay. [Related pubchem assays (depositor defined):AID493012, AID493028]; format: functional
Chain of DNA dC->dU-editing enzyme APOBEC-3G (Q9HC16 whole entry): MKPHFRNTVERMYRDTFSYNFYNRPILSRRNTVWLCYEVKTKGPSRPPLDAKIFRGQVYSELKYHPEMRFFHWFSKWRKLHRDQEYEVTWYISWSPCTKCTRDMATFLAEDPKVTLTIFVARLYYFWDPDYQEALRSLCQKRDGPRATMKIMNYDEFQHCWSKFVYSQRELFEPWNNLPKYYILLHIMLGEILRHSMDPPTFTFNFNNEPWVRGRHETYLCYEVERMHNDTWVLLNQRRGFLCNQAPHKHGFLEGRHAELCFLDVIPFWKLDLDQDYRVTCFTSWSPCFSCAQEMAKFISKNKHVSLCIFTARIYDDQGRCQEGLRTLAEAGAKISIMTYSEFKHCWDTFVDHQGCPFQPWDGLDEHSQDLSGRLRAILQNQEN

Paired box protein Pax-8 = Paired box protein Pax-8 (Homo sapiens, UniProt Q06710); assay: inhibitors of PAX8-driven TPO luciferase reporter, dose response, RMG-I cells, cherry-pick (AID 687027); format: functional, cell-based;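 note: luciferase reporter driven by Pax8 target thyroperoxidase promoter measured by SteadyGlo luminescence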
Chain of Paired box protein Pax-8 (Q06710 whole entry): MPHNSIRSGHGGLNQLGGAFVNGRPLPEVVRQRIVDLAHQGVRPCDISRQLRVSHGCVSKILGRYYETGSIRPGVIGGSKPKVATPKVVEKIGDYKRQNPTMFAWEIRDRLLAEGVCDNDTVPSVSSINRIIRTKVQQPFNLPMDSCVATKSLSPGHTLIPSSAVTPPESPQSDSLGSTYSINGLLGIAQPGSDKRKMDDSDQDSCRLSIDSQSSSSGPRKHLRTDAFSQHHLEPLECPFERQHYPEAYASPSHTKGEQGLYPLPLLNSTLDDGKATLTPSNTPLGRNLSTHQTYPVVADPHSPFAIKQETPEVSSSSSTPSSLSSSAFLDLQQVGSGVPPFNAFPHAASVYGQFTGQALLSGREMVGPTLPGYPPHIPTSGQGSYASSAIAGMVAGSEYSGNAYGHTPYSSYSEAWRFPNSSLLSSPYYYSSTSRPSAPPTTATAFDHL

[14] = NIH:OVCAR-3 ovarian cancer cell cytotoxicity, dose response, PAX8 inhibitor project, plate reader, dry powder samples (AID 743044); format: functional, cell-based
[15] = cytotoxicity in OVCAR8 ovarian cancer cells, dose response, PAX8 project, cell-based, plate reader, dry powder samples (AID 743197); format: functional; conditions: OVCAR-8
[16] = Luminescence Cell-Based Dose Confirmation HTS to Identify Activators of 5'UTR Stem-Loop Driven Alpha-Synuclein mRNA Translation in H4 Neuroglioblastoma Cells. [Related pubchem assays: 1829 (Project Summary), 1814 (Primary HTS)]; format: functional
[17] = Luminescence Cell-Based Dose Response HTS to Identify Activators of Luciferase Translation or Activity in H4 […] Cells. [Related pubchem assays: 1829 (Project Summary), 1814 (Primary HTS)]; format: functional
H4 = assay: Luminescence Cell-Based Dose Response HTS to Identify Activators of 5'UTR Stem-Loop Driven Prion Protein mRNA Translation in H4 Neuroglioblastoma Cells. [Related pubchem assays: 1829 (Project Summary), 1814 (Primary HTS)]; format: functional; conditions: Homo sapiens
[18] = tested on: Streptococcus sp. 'group A'; assay: growth inhibition of control SK(-) GAS strain, dose response, counter-screen for streptokinase expression inhibitor project, luminescence, kanamycin, BacTiterGlo, confirmation (AID 1900); format: functional, organism-based
[19] = inhibitors of intracellular T. cruzi replication, confirmation, NIH3T3 host cells, beta-gal luminescence (AID 2044); format: functional, cell-based;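 note: intracellular parasites grown in NIH/3T3 mouse fibroblasts as host cells; luminescent beta-galactosidase reporter signal from transgenic T. cruzi replicating inside host cells; inhibitors lower the luminescence signal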
[20] = cytotoxicity toward NIH3T3 fibroblasts, dose response, counter-screen, cell-based, ATP luminescence, mouse fibroblasts (AID 2010); format: functional;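 note: cells exposed to compound for about 90 hours before reading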
Streptococcus = assay: Group A Streptococcus viability loss, dose response, counter-screen for streptokinase expression inhibitor project, luminescence, BacTiterGlo (AID 1915); format: functional, organism-based;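 note: potency for reduction of bacterial viability or growth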

SMILES: Cc1cc(C(=O)CSc2nc3ccccc3[nH]2)c(C)n1Cc1ccco1
- IC50 [1]: 1.93 µM (active)
- IC50 [2]: 1.29 µM (active)

SMILES: COc1ccc(/C=N/NC(=O)c2nc(-c3ccccc3)n(-c3ccccc3)n2)c(O)c1
- EC50 (cells [3]): 10.1 µM (active)
- EC50 (cells [4]): > 350 µM (not active)
- AC50 (INS1): 1.47 µM (active)

SMILES: COc1ccc(OC)c(C2=Nn3c(nnc3-c3cc(C)[nH]n3)SC2)c1
- EC50 (cells [3]): > 350 µM (not active)
- EC50 (cells [4]): > 350 µM (not active)

SMILES: COc1ccc(/C(Cl)=C(\C=O)c2ccc(OC)c(OC)c2)cc1OC
- GI50 (P388/ADR): 10.5 µM (inactive)
- GI50 (SN12K1): 80.9 µM (inactive)
- GI50 (P388): 35.3 µM (inactive)

SMILES: Cc1ccc(-c2nn3c(C)nnc3s2)cc1NCc1c(F)cccc1Cl
- IC50 [1]: 3.44 µM (active)
- IC50 [2]: 5.76 µM (active)

SMILES: CC(Oc1ccc2c(-c3ccccc3)cc(=O)oc2c1)C(=O)NCc1ccccn1 (stereo not drawn)
- AC50 [5]: 8.99 µM (active)

SMILES: COc1cccc(N[C@@H]2c3cc4c(cc3C(c3cc(OC)c(O)c(OC)c3)[C@H]3C(=O)OCC32)OCO4)c1 (stereo partly drawn)
- GI50 (P388/ADR): 0.0635 µM (active)
- GI50 (SN12K1): 0.0615 µM (active)
- GI50 (P388): < 0.01 µM (active)

SMILES: CC(=O)Nc1ccc(S(=O)(=O)Nc2ccc(S(=O)(=O)Nc3nccs3)cc2)cc1
- EC50 (cells [3]): > 350 µM (not active)
- EC50 (cells [4]): > 350 µM (not active)

SMILES: CN1C(=O)NC(=O)/C(=C/c2ccc(C(=O)O)cc2)C1=O
- IC50 (Genome polyprotein): 85.1 µM (active)

SMILES: Cc1ccc(-c2nnc(-c3ccccc3Br)o2)cc1
- AC50 [6]: 14.3 µM (active)
- AC50 [7]: 20.3 µM (active)

SMILES: Cc1nc2nc(SCC(=O)NCCCN3CCOCC3)nn2c(C)c1Cc1ccccc1
- AC50 [5]: 5.43 µM (active)

SMILES: C/C(=C/C(=O)Nc1ccccc1)Nc1onc(C)c1C
- GI50 (SN12K1): > 100 µM (inactive)
- GI50 (P388): > 100 µM (inactive)

SMILES: O=C(O)c1cccc(NS(=O)(=O)c2ccc(-c3ccc(S(=O)(=O)Nc4cccc(C(=O)O)c4)cc3)cc2)c1
- IC50 (Genome polyprotein): 49.5 µM (active)

SMILES: CCOc1cccc(-c2c(C(=O)N/N=C(\C)c3ccccn3)nnn2-c2nonc2N)c1
- EC50 [8]: 18.2 µM (active)
- EC50 (cells [3]): 6.32 µM (active)
- EC50 [9]: > 38 µM (not active)
- EC50 (cells [4]): > 350 µM (not active)
- IC50 (Nonstructural protein 1): 3.36 µM (active)
- IC50 (H9c2): > 79 µM (inactive)

SMILES: Cc1cc(C)c2nc(N=C(N)NC(=O)Nc3ccccc3)nc(C)c2c1
- CC50 [10]: > 40 µM (active)
- CC50 [11]: > 20 µM (active)
- IC50 (cells [12]): 8.18 µM (active)

SMILES: O=C(CSc1nncs1)N1c2ccccc2Sc2ccccc21
- AC50 [5]: 1.56 µM (active)

SMILES: O=S(=O)(c1ccc(Br)cc1)c1nc(-c2ccccc2)oc1NCCN1CCOCC1
- IC50 (Nonstructural protein 1): > 100 µM (active)

SMILES: Cn1c(-c2cc(Br)ccc2O)n[nH]c1=S
- EC50 (Streptokinase A): > 150 µM (not active)
- IC50 [13]: 8.33 µM (active)

SMILES: COc1ccc2c(c1)-c1nn(CCCN(C)C)c3ccc([N+](=O)[O-])c(c13)N2
- GI50 (P388/ADR): 0.281 µM (active)
- GI50 (SN12K1): 0.119 µM (active)
- GI50 (P388): 0.163 µM (active)

SMILES: C[C@@H]1CCCCO[C@H](CN(C)C(=O)Nc2ccc(F)cc2)[C@@H](C)CN([C@@H](C)CO)C(=O)c2cc(NS(=O)(=O)c3ccc(Cl)cc3)ccc2O1
- AC50 (Paired box protein Pax-8): 4.84 µM (active)
- AC50 [14]: 19.6 µM (active)
- AC50 [15]: 35 µM (active)

SMILES: COc1ccc2c(c1)OCCc1cn[nH]c1-2
- GI50 (P388/ADR): 34 µM (inactive)
- GI50 (SN12K1): 38.2 µM (inactive)
- GI50 (P388): 32.5 µM (inactive)

SMILES: COc1ccc2oc(=O)c(C(=O)NC3CCCCCC3)cc2c1
- EC50 [16]: 28.6 µM (active)
- EC50 [17]: 32.6 µM (active)
- EC50 (cells [3]): > 350 µM (not active)
- EC50 (H4): 19.8 µM (active)
- EC50 (cells [4]): > 350 µM (not active)

SMILES: Cn1cccc1C(=O)Nc1nc(-c2ccccn2)cs1
- EC50 [18]: 18.4 µM (active)
- EC50 (Streptokinase A): > 150 µM (not active)
- EC50 [19]: 2.28 µM (active)
- EC50 [20]: 4.47 µM (active)
- EC50 (Streptococcus): 58.3 µM (active)
- IC50 (Nonstructural protein 1): 11 µM (active)

SMILES: O=C1C=C(c2ccccc2)CC(c2cccs2)C1n1cnc([N+](=O)[O-])c1 (stereo not drawn)
- EC50 (cells [3]): > 350 µM (not active)
- EC50 (cells [4]): > 350 µM (not active)

SMILES: C=CCOc1ccccc1/C=c1\sc2nc(=O)c(C)nn2c1=O
- IC50 (Genome polyprotein): 12.1 µM (active)

SMILES: COC(=O)/C=c1/sc2nc3ccccc3n2c1=O
- IC50 [13]: 30.8 µM (active)

SMILES: CCOc1ccc(C(=O)N/N=C(/C)C2C(=O)c3ccccc3C2=O)cc1
- CC50 [10]: > 40 µM (active)
- CC50 [11]: > 20 µM (active)

SMILES: C/C=C/c1ccc2c(c1)O[C@@H](CN(C)C(=O)Cc1cccnc1)[C@H](C)CN([C@H](C)CO)S2(=O)=O
- AC50 [5]: 10.3 µM (active)

SMILES: CN(C(=O)CSc1nc2ccccc2c(=O)n1-c1ccccc1Cl)C1CCS(=O)(=O)C1 (stereo not drawn)
- AC50 [5]: 2.22 µM (active)

SMILES: CSc1nc2c(ncn2C2OC(CO)C(O)C(O)C2O)c(=O)[nH]1 (stereo not drawn)
- GI50 (P388/ADR): > 10 µM (inactive)
- GI50 (SN12K1): > 100 µM (inactive)
- GI50 (P388): > 100 µM (inactive)

SMILES: O=C[C@@H](CO)O[C@H](C=O)n1cnc2c(=O)nc[nH]c21
- GI50 (P388/ADR): 69.2 µM (inactive)
- GI50 (SN12K1): 284 µM (inactive)
- GI50 (P388): 76 µM (inactive)

SMILES: c1ccc(-c2cnnc(-c3ccccn3)n2)cc1
- IC50 (Nonstructural protein 1): 12.9 µM (active)

— ChEMBL document CHEMBL1201862, “PubChem BioAssay data set” (2004)
